Here are results for 4 compounds from ChEMBL document CHEMBL5244242, “1,4-Benzodioxane, an evergreen, versatile scaffold in medicinal chemistry: A review of its recent applications in drug design” (Eur J Med Chem, 2020).

In one assay the test system is HeLa. In words: Anticancer activity against human HeLa cells assessed as cell growth inhibition incubated for 24 hrs by MTT assay. The format is functional, cell-based.
The target in assay [1] is T1, Tyrosine-protein kinase JAK3 (Homo sapiens, UniProt P52333).
T1 sequence (P52333 whole entry): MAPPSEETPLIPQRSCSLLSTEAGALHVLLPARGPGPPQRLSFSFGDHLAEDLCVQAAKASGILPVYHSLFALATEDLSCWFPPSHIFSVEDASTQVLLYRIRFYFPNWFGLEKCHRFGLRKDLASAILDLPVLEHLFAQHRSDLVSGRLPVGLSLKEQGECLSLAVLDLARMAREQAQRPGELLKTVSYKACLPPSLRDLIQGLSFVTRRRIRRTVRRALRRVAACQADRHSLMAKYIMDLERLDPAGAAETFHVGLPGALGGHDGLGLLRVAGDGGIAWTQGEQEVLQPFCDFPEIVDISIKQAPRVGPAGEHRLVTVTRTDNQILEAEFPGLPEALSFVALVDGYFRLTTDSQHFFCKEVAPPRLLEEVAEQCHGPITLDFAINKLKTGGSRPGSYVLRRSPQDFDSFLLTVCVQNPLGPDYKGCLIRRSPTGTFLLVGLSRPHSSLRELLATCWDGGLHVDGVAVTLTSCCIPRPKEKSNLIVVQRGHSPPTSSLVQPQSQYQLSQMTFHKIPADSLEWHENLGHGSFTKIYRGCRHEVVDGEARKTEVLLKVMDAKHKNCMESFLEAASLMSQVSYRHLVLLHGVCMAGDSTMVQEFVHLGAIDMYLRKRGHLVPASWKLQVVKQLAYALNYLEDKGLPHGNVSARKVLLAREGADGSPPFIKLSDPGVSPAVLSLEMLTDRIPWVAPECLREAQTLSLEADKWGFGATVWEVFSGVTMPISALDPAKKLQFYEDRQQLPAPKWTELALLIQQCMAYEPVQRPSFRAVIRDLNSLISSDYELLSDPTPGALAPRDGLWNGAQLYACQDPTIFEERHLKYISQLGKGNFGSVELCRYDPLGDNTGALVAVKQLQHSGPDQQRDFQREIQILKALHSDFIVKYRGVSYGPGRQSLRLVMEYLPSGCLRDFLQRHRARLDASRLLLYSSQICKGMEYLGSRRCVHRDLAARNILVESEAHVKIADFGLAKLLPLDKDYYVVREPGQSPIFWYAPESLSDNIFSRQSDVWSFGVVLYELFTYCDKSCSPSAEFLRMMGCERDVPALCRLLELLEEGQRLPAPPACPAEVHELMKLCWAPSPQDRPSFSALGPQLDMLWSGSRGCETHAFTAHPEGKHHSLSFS
Kind of assay: Inhibition of JAK3 (unknown origin) incubated for 20 mins.

For another assay, the system named is U-251. Kind of assay: Anticancer activity against human U-251 cells assessed as cell growth inhibition incubated for 24 hrs by MTT assay. In kind it is functional, cell-based. As to conditions: U-251, 24 h. (Formazan colour is commonly taken as a measure of viable cells.)
Another assay deals with A549. In words: Anticancer activity against human A549 cells assessed as cell growth inhibition incubated for 24 hrs by MTT assay. The format is functional, cell-based. The note with it: A549, 24 h.
Another assay deals with HepG2. In words: Anticancer activity against human HepG2 cells assessed as cell growth inhibition incubated for 24 hrs by MTT assay. The format is functional, cell-based. As to conditions: HepG2, 24 h.
The target in assay [2] is T2, Prostaglandin G/H synthase 2 (Homo sapiens, UniProt P35354).
T2 sequence (P35354 whole entry): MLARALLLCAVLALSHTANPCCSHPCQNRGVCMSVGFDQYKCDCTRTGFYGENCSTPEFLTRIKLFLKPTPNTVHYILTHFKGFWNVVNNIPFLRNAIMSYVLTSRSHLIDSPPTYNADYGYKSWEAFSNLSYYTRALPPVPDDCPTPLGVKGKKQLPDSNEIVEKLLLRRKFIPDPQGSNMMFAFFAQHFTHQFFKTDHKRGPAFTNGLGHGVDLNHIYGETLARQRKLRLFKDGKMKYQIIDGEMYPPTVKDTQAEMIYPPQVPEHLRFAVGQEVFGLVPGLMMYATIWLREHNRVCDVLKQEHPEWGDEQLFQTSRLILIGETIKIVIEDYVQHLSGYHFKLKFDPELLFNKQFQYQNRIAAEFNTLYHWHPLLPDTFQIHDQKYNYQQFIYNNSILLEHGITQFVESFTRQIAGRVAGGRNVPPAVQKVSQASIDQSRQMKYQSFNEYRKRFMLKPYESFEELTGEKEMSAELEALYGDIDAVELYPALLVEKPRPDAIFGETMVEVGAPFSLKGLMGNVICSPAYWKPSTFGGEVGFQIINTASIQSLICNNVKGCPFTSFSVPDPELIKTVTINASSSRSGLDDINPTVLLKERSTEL
In words: Inhibition of COX2 (unknown origin).

For assay [3], the target named is Prostaglandin G/H synthase 1 (Homo sapiens, UniProt P23219). Kind of assay: Inhibition of COX1 (unknown origin).
Sequence of Prostaglandin G/H synthase 1 (P23219 whole entry): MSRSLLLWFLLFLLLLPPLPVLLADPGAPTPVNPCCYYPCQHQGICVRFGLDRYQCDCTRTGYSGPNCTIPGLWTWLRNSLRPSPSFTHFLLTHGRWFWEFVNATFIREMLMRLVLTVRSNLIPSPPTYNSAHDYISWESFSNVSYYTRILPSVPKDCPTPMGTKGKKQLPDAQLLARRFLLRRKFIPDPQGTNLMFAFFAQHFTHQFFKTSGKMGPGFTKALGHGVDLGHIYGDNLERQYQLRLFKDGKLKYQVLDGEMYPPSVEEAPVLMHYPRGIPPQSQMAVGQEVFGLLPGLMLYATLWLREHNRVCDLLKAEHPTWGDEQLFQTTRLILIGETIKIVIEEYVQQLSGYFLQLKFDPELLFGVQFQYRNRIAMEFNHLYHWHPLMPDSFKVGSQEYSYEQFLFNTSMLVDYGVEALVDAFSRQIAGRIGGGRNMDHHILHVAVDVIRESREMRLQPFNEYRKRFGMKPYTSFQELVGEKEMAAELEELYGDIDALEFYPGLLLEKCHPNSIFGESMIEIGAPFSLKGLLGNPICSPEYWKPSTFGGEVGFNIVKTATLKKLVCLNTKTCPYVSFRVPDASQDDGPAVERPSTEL
The test system of a further assay is Escherichia coli. Kind of assay: Antibacterial activity against Escherichia coli FabH assessed as bacterial growth inhibition incubated for 24 hrs by MTT based ELISA analysis. In kind it is functional, organism-based. On the technique in general: An ELISA detects its analyte on a solid surface through an enzyme-linked reagent.
For the next assay, the system named is Bacillus subtilis. Kind of assay: Antibacterial activity against Bacillus subtilis assessed as bacterial growth inhibition incubated for 24 hrs by MTT based ELISA analysis. In kind it is functional.
The test system of another assay is Staphylococcus aureus. Kind of assay: Antibacterial activity against Staphylococcus aureus assessed as bacterial growth inhibition incubated for 24 hrs by MTT based ELISA analysis. In kind it is functional.

`O=C(OCCn1c([N+](=O)[O-])cnc1/C=C/c1ccc(Cl)cc1Cl)c1ccc2c(c1)OCCO2`: the IC50 (as a rule, the concentration at which inhibition is half-maximal) in the assay on HeLa worked out at 0.021 µM; in assay [1] it was 0.009 µM; with U-251, 0.044 µM; in the assay on A549, 0.065 µM; with HepG2 it was 0.016 µM.
`COc1cc(C2Oc3cc(C=Cc4cc(O)cc(O)c4)ccc3OC2CO)cc(OC)c1O` (stereo not drawn): the IC50 in assay [2] stood at 9.9 µM; in assay [3] it was 1.9 µM.
For the compound `O=C(N/N=C/C=C/c1ccccc1[N+](=O)[O-])c1cccc2c1OCCO2`, in the assay with Escherichia coli, the IC50 came out at 3.5 µM. Further, the MIC (commonly the smallest concentration in the dilution series that meets the test's criterion for growth inhibition) was determined as 6 mg/L in the assay with Bacillus subtilis and 1.5 mg/L with Staphylococcus aureus.
`O=C(CN1CCN(c2ccccn2)CC1)N1C(=O)S/C(=C\c2ccc3c(c2)OCCO3)C1=O`: the IC50 in the assay with Escherichia coli was 0.06 µM. In addition, the MIC with Bacillus subtilis and in the assay on Staphylococcus aureus was 1.5 µM in each case.
